Reference: US9902696B2, “1,4-substituted piperidine derivatives” (Cephalon, Inc., priority 2015, dated 2018)
Structures can show the parent of a compound that is named as a salt.

Molecular target: T1, recombinant human baculovirus-expressed GST-tagged FASN (Homo sapiens, UniProt P49327)
T1 construct: GST
Assay: FASN enzyme activity assay, fluorescence-based detection of CoA with CPM
Assay type: biochemical
Settings: 5 nM FASN, 150 μM NADPH, 10 μM acetyl-CoA, 25 μM malonyl-CoA, 90 minutes incubation; read-out: IC50 data for Additional Compounds of Formulae I-V(a): Activity
Method in brief: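 CoA product reacted with thiol-reactive CPM (diluted to 50 μM in 70% ethanol), read at 390/530 nm after 30 min. Preceding reaction: 90 min, 5 nM recombinant GST-FASN, 150 μM NADPH, 10 μM acetyl-CoA, 25 μM malonyl-CoA, pH 7.5 HEPES, 0.5% DMSO. IC50s fitted by nonlinear sigmoidal regression.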

T1 sequence (P49327 whole entry): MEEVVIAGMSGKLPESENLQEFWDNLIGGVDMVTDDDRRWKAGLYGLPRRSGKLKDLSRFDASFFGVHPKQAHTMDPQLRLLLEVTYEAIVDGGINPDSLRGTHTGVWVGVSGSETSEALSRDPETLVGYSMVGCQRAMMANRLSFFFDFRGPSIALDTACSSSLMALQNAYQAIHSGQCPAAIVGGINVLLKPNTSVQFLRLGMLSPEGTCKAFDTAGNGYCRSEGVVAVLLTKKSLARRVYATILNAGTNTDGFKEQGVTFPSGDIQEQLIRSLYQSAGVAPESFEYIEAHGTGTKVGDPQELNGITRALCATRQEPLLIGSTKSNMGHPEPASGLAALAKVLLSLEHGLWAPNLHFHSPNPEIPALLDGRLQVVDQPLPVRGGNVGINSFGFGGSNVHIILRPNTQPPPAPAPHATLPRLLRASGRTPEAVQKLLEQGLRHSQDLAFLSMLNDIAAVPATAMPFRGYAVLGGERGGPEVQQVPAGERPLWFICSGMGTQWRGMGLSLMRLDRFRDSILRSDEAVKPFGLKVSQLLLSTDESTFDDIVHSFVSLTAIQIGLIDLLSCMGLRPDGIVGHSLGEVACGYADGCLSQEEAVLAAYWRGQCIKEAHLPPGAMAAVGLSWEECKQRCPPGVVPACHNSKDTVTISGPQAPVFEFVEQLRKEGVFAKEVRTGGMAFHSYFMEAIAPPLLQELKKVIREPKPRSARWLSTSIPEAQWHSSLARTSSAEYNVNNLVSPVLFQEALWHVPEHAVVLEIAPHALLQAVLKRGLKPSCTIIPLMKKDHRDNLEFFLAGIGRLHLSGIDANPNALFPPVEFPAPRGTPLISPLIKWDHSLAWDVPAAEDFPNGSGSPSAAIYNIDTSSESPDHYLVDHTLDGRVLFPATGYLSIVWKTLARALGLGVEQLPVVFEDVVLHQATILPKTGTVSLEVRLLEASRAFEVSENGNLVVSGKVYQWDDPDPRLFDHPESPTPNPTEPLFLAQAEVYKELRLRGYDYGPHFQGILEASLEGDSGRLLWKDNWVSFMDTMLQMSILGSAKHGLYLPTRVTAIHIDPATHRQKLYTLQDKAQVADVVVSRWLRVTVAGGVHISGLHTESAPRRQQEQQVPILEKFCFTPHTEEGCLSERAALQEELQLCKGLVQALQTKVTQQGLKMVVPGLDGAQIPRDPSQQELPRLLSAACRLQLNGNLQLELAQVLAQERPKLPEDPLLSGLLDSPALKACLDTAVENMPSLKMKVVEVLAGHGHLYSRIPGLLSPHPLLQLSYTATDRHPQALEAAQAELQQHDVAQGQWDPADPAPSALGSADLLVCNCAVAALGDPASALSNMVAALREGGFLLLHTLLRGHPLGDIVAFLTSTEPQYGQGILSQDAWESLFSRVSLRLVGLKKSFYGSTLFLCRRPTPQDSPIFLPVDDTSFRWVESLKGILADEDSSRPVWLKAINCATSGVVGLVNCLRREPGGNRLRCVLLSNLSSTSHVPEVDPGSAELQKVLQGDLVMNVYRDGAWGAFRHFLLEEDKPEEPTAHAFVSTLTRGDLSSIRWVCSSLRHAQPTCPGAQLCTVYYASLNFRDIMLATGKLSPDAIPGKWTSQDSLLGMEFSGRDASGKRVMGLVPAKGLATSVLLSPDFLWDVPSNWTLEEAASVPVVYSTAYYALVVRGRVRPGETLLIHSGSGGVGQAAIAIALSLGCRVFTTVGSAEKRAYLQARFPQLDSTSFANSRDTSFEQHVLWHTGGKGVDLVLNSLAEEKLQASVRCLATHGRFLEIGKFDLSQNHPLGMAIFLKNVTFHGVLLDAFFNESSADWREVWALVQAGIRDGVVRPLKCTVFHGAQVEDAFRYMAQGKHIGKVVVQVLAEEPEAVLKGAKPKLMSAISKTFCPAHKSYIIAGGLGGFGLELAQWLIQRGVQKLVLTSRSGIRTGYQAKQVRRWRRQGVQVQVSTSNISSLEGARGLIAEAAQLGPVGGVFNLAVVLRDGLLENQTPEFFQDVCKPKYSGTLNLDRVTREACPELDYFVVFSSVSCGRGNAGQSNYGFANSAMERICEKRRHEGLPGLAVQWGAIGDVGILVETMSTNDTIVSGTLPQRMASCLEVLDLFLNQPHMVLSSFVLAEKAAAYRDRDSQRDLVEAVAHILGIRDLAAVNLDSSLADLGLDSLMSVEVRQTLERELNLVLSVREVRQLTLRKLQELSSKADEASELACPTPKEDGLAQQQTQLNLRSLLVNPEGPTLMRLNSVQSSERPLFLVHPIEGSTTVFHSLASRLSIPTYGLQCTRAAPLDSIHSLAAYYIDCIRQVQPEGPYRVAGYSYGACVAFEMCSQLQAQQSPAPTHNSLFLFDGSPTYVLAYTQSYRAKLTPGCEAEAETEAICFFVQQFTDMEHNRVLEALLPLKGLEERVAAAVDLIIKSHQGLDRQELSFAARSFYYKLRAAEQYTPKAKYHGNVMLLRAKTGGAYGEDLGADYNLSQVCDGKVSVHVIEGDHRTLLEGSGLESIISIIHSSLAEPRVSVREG

IC50 [nM]	SMILES
1000 to 10000	CCNC(=O)N1CCC(Oc2ccc(-c3ccc4ccc(O)nc4c3C)cc2)CC1 [Example 529, N-Ethyl-4-[4-(2-hydroxy-8-methyl-7-quinolyl)phenoxy]piperidine-1-carboxamide]
1 to 99	Cc1c(-c2ccc(OC3CCN(C(=O)NCCN4CCCC4)CC3)cc2)ccc2cccnc12 [Example 530, 4-[4-(8-Methyl-7-quinolyl)phenoxy]-N-(2-pyrrolidin-1-ylethyl)piperidine-1-carboxamide HCl]
1000 to 10000	Cc1c(-c2ccc(OC3CCN(C(=O)NCCN4CCOCC4)CC3)cc2)ccc2cccnc12 [Example 531, 4-[4-(8-Methyl-7-quinolyl)phenoxy]-N-(2-morpholinoethyl)piperidine-1-carboxamide HCl]
1000 to 10000	Cc1c(-c2ccc(OC3CCN(C(=O)N4CCN(C(C)C)CC4)CC3)cc2)ccc2cccnc12 [Example 532, (4-Isopropylpiperazin-1-yl)-[4-[4-(8-methyl-7-quinolyl)phenoxy]-1-piperidyl]methanone, HCl]
1000 to 10000	Cc1c(-c2ccc(OC3CCN(C(=O)N4CCN(C)CC4)CC3)cc2)ccc2cccnc12 [Example 533, (4-Methyllpiperazin-1-yl)-[4-[4-(8-methyl-7-quinolyl)phenoxy]-1-piperidyl]methanone, HCl]
1000 to 10000	Cc1c(-c2ccc(OC3CCN(C(=O)N4CCC(N5CCOCC5)CC4)CC3)cc2)ccc2cccnc12 [Example 534, [4-[4-(8-Methyl-7-quinolyl)phenoxy]-1-piperidyl]-(4-morpholino-1-piperidyl)methanone, HCl]
1000 to 10000	CCN1CCN(C(=O)N2CCC(Oc3ccc(-c4ccc5cccnc5c4C)cc3)CC2)CC1 [Example 535, (4-Ethyl lpiperazin-1-yl)-[4-[4-(8-methyl-7-quinolyl)phenoxy]-1-piperidyl]methanone tosylate]
1000 to 10000	CCNC(=O)N1CCC(Oc2ccc(-c3ccc4ccnn4c3C)cc2)CC1 [Example 536, N-Ethyl-4-[4-(7-methylpyrazolo[1,5-a]pyridin-6-yl)phenoxy]piperidine-1-carboxamide]
1 to 99	Cc1c(-c2ccc(OC3CCN(C(=O)NOC(C)C)CC3)cc2)ccc2ccnn12 [Example 537, N-Isopropoxy-4-[4-(7-methylpyrazolo[1,5-a]pyridin-6-yl)phenoxy]piperidine-1-carboxamide]
1 to 99	CCONC(=O)N1CCC(Oc2ccc(-c3ccc4ccnn4c3C)cc2)CC1 [Example 538, N-Ethoxyoxy-4-[4-(7-methylpyrazolo[1,5-a]pyridin-6-yl)phenoxy]piperidine-1-carboxamide]
1 to 99	CONC(=O)N1CCC(Oc2ccc(-c3ccc4ccnn4c3C)cc2)CC1 [Example 539, N-Methoxyoxy-4-[4-(7-methylpyrazolo[1,5-a]pyridin-6-yl)phenoxy]piperidine-1-carboxamide]
1 to 99	Cc1c(-c2ccc(OC3CCN(C(=O)NCC4CC4)CC3)cc2)ccc2cccnc12 [Example 540, N-(Cyclopropylmethyl)-4-[4-(8-methyl-7-quinolyl)phenoxy]piperidine-1-carboxamide, HCl]
1 to 99	Cc1c(-c2ccc(OC3CCN(C(=O)NCC(C)C)CC3)cc2)ccc2cccnc12 [Example 541, N-Isobutyl-4-[4-(8-methyl-7-quinolyl)phenoxy]piperidine-1-carboxamide, HCl]
1 to 99	COCCNC(=O)N1CCC(Oc2ccc(-c3ccc4cccnc4c3C)cc2)CC1 [Example 542, N-(2-Methoxyethyl)-4-[4-(8-methyl-7-quinolyl)phenoxy]piperidine-1-carboxamide HCl]
1000 to 10000	Cc1c(-c2ccc(OC3CCN(C(=O)NOC(C)C)CC3)cc2)ccc2cccnc12 [Example 543, N-Isopropoxy-4-[4-(8-methyl-7-quinolyl)phenoxy]piperidine-1-carboxamide]
1 to 99	Cc1c(-c2ccc(OC3CCN(C(=O)NCCN(C)C)CC3)cc2)ccc2cccnc12 [Example 545, N-(2-Dimethylaminoethyl)-4-[4-(8-methyl-7-quinolyl)phenoxy]piperidine-1-carboxamide HCl]
1000 to 10000	Cc1c(-c2ccc(OC3CCN(C(=O)OCCN4CCOCC4)CC3)cc2)ccc2cccnc12 [Example 546, 2-Morpholinoethyl 4-[4-(8-methyl-7-quinolyl)phenoxy]piperidine-1-carboxylate 2HCl]
1000 to 10000	Cc1c(-c2ccc(OC3CCN(C(=O)OCCN4CCCC4)CC3)cc2)ccc2cccnc12 [Example 547, 2-Pyrrolidin-1-ylethyl 4-[4-(8-methyl-7-quinolyl)phenoxy]piperidine-1-carboxylate, 2HCl]

SMILES	IC50 [nM]
Cc1c(-c2ccc(OC3CCN(C(=O)NOCC(C)C)CC3)cc2)ccc2cccnc12 [Example 544, N-Isobutoxy-4-[4-(8-methyl-7-quinolyl)phenoxy]piperidine-1-carboxamide]	1 to 99

Same assay, conditions: 5 nM FASN, 150 μM NADPH, 10 μM acetyl-CoA, 25 μM malonyl-CoA, 90 minutes incubation; read-out: IC50 data for Compounds of Formulae I-V/V(a): Activity

IC50 [nM]	SMILES
1 to 99	CCC(=O)N1CCC(Sc2ccc(-c3cnc4ccccc4c3)cc2)CC1 [Example 518, 1-(4-((4-(Quinolin-3-yl)phenyl)thio)piperidin-1-yl)propan-1-one, HCl]
1000 to 10000	CCC(=O)N1CCC(Sc2ccc(-c3cncc4ccccc34)cc2)CC1 [Example 519, 1-(4-((4-(Isoquinolin-4-yl)phenyl)thio)piperidin-1-yl)propan-1-one, HCl]
1 to 99	CC(C)C(=O)N1CCC(Sc2ccc(-c3ccc4cccnc4c3)cc2)CC1 [Example 520, HCl]
100 to 999	CC(C)C(=O)N1CCC(Sc2ccc(-c3ccc4cnccc4c3)cc2)CC1 [Example 521, 1-(4-((4-(Isoquinolin-6-yl)phenyl)thio)piperidin-1-yl)-2-methylpropan-1-one HCl]
1000 to 10000	CC(C)C(=O)N1CCC(Sc2ccc(-c3cnc4ccccc4c3)cc2)CC1 [Example 522, 2-Methyl-1-(4-((4-(quinolin-3-yl)phenyl)thio)piperidin-1-yl)propan-1-one, HCl]
1000 to 10000	CC(C)C(=O)N1CCC(Sc2ccc(-c3cncc4ccccc34)cc2)CC1 [Example 523, 1-(4-((4-(Isoquinolin-4-yl)phenyl)thio)piperidin-1-yl)-2-methylpropan-1-one HCl]
100 to 999	CCC(=O)N1CCC(N(C)c2ccc(-c3cnc4ccccc4c3)cc2)CC1 [Example 524, 1-{4-[Methyl-(4-quinolin-3-yl-phenyl)-amino]-piperidin-1-yl}-propan-1-one, HCl]
100 to 999	CN(c1ccc(-c2cnc3ccccc3c2)cc1)C1CCN(C(=O)C2CC2)CC1 [Example 525, Cyclopropyl-{4-[methyl-(4-quinolin-3-yl-phenyl)-amino]-piperidin-1-yl}-methanone, HCl]
1000 to 10000	CCC(=O)N1CCC(Nc2ccc(-c3cnc4ccccc4c3)cc2)CC1 [Example 526, 1-[4-(4-Quinolin-3-yl-phenylamino)-piperidin-1-yl]-propan-1-one, HCl]
1000 to 10000	O=C(C1CC1)N1CCC(Nc2ccc(-c3cnc4ccccc4c3)cc2)CC1 [Example 527, Cyclopropyl-[4-(4-quinolin-3-yl-phenylamino)-piperidin-1-yl]-methanone, HCl]
100 to 999	CN(c1ccc(-c2cnc3ccccc3c2)cc1)C1CCN(C(=O)[C@H]2CCCO2)CC1 [Example 528, {4-[Methyl-(4-quinolin-3-yl-phenyl)-amino]-piperidin-1-yl}-(R)-tetrahydrofuran-2-yl-methanone, HCl]
